Some results are limits rather than exact numbers.

One assay deals with HT1080 cells (ATCC, cat #CCL-121). Nature of the assay: HT1080 CellTiter-Glo 2.0 IC50 assay of working examples. The class given is cell-based. The following applies: HT-1080, 24 hrs, cells plated with and without 1.5 μM ferrostatin-1, table does not say which, Table 7. The method, then: Biological evaluation of working examples A1-A47 and B1-B28 was performed in HT1080 cells (ATCC, cat #CCL-121) according to the procedure provided below.
• 1.1 Cells were harvested from flask into cell culture medium and then the cell number count was determined. • 1.2 The cells were suspended with 1.5 μM ferrostatin-1 and without ferrostatin-1. • 1.3 Cells were plated at a density of 1,500 cells per well in a 384-well black sided clear bottom plate, in 25 μL, using electronic multichannel pipette. • 1.4 Plates were covered with lid and spun for 1 min at 1000 rpm, then allowed to incubate overnight at 37° C. under 5% CO2.
• 2.1 Compounds were dissolved at 10 mM stock solution and 10 μl of diluted solution was transferred to a 384 LDV-plate (LABCYTE, LP-0200). A 3 fold, 11-point dilution was performed. • 2.2 Cells were treated with compounds by plate reformat Echo software and spun for 1 min at 1000 rpm. Then incubated at 37° C. for 24 hrs in a CO2 incubator.
• 3.1 The plates were removed from the incubator and allowed to equilibrate to room temperature, at least 30 minutes. • 3.2 CellTiter-Glo® 2.0 Reagent (Promega, G9242) was added (25 μL) to the assay plates and spun for 1 min at 1000 rpm. Then allowed to stand for about 20 minutes before reading luminescence signal on Envision. • 3.3 The IC50 calculations were determined with a nonlinear fit, variable slope (four parameters) log(inhibitor) vs. response model using GraphPad PRISM.
For orientation: ATP-based viability assays read luminescence as a measure of living cells.
Broadly, the IC50 is the concentration at which inhibition is half-maximal. A higher IC50 goes with lower potency. For `Cc1cc(N(Cc2ccc(F)cc2)C(=O)CCl)cc(C)c1O` [Compound A41, 2-chloro-N-[(4-fluorophenyl)methyl]-N-(4-hydroxy-3,5-dimethyl-phenyl)acetamide], the IC50 is more than 10000 nM.

In the case of `Cc1c(Cl)ccc(N(Cc2ccc(F)cc2)C(=O)CCl)c1Cl` [Compound A42, 2-chloro-N-(2,4-dichloro-3-methyl-phenyl)-N-[(4-fluorophenyl)methyl]acetamide], the IC50 fell in the range of 100 to 1000 nM. Same read-out and setting: the figure for `COc1cc(OC)cc(N(Cc2ccc(F)c(F)c2Cl)C(=O)CCl)c1` [Compound A43, 2-chloro-N-[(2-chloro-3,4-difluoro-phenyl)methyl]-N-(3,5-dimethoxyphenyl)acetamide] is not above 10 nM. For `COc1cc(OC)cc(N(Cc2cc(C)cc(F)c2)C(=O)CCl)c1` [Compound A44, 2-chloro-N-(3,5-dimethoxyphenyl)-N-[(3-fluoro-5-methyl-phenyl)methyl]acetamide], the IC50 lay within 10 to 100 nM. Still for that read-out and setting: for `COc1cc(OC)cc(N(Cc2cccc3nsnc23)C(=O)CCl)c1` [Compound A45, N-(2,1,3-benzothiadiazol-4-ylmethyl)-2-chloro-N-(3,5-dimethoxyphenyl)acetamide] the value was 10 to 100 nM; for `COc1cc(N(Cc2ccc(F)cc2)C(=O)CCl)ccn1` [Compound A46, 2-chloro-N-[(4-fluorophenyl)methyl]-N-(2-methoxy-4-pyridyl)acetamide], 100 to 1000 nM; for `Cc1ccc(N(Cc2ccc(F)cc2)C(=O)CCl)cn1` [Compound A47, 2-chloro-N-[(4-fluorophenyl)methyl]-N-(6-methyl-3-pyridyl)acetamide], more than 10000 nM.

Staying with this assay, now noted: HT-1080, 24 hrs, cells plated with and without 1.5 μM ferrostatin-1, table does not say which, Table 8.
Consider `C#CC(=O)N(CCCOC)c1nc(-c2ccc(Br)cc2)cs1` [Compound B2, N-[4-(4-bromophenyl)thiazol-2-yl]-N-(3-methoxypropyl)prop-2-ynamide], for which the IC50 is 1000 to 10000 nM.

Consider `COCCCN(C(=O)CCl)c1nc(-c2ccc(OC)cc2)cs1` [Compound B3, 2-chloro-N-[4-(4-methoxyphenyl)thiazol-2-yl]-N-(3-methoxypropyl)acetamide], for which the IC50 was in the range of 1000 to 10000 nM. Take `Cc1cc(C)cc(N(C(=O)CCl)c2nc(-c3ccc(Br)cc3)cs2)c1` [Compound B5, N-[4-(4-bromophenyl)thiazol-2-yl]-2-chloro-N-(3,5-dimethylphenyl)acetamide]: the IC50 fell in the range of 100 to 1000 nM. `C=CC(=O)N(c1cc(C)cc(C)c1)c1nc(-c2ccc(Br)cc2)cs1` [Compound B7, N-[4-(4-bromophenyl)thiazol-2-yl]-N-(3,5-dimethylphenyl)prop-2-enamide]: the IC50 was more than 10000 nM. Same read-out and setting: for `CC#CC(=O)N(c1cc(C)cc(C)c1)c1nc(-c2ccc(Br)cc2)cs1` [Compound B8, N-[4-(4-bromophenyl)thiazol-2-yl]-N-(3,5-dimethylphenyl)but-2-ynamide] the value was more than 10000 nM; for `COc1ccc(-c2csc(N(C(=O)CCl)c3cc(C)cc(C)c3)n2)cc1` [Compound B9, 2-chloro-N-(3,5-dimethylphenyl)-N-[4-(4-methoxyphenyl)thiazol-2-yl]acetamide], 100 to 1000 nM. Same read-out and setting: for `Cc1cc(C)cc(N(C(=O)CCl)c2nc(C3CCCCC3)cs2)c1` [Compound B10, 2-chloro-N-(4-cyclohexylthiazol-2-yl)-N-(3,5-dimethylphenyl)acetamide] the value was 100 to 1000 nM. `Cc1cc(C)cc(N(C(=O)CCl)c2nc(-c3ccccc3)cs2)c1` [Compound B11, 2-chloro-N-(3,5-dimethylphenyl)-N-(4-phenylthiazol-2-yl)acetamide] returned an IC50 of 100 to 1000 nM. Regarding `Cc1cc(C)cc(N(C(=O)CCl)c2nc(-c3cccc(Br)c3)cs2)c1` [Compound B12, N-[4-(3-bromophenyl)thiazol-2-yl]-2-chloro-N-(3,5-dimethylphenyl)acetamide], the IC50 lay in the range of 100 to 1000 nM. On the same count and under the same terms, the figure for `C#CC(=O)N(c1cc(C)cc(C)c1)c1nc(-c2ccc(Br)cc2)cs1` [Compound B13, N-[4-(4-bromophenyl)thiazol-2-yl]-N-(3,5-dimethylphenyl)prop-2-ynamide] is 10 to 100 nM; for `O=C(CCl)N(Cc1ccccc1)c1nc(-c2ccc(Br)cc2)cs1` [Compound B14, N-benzyl-N-[4-(4-bromophenyl)thiazol-2-yl]-2-chloro-acetamide] it is 1000 to 10000 nM; for `O=C(CCl)N(c1ccccc1)c1nc(-c2ccc(Br)cc2)cs1` [Compound B15, N-[4-(4-bromophenyl)thiazol-2-yl]-2-chloro-N-phenyl-acetamide] it is more than 10000 nM. The same measure, in the same setting: the figure for `Cc1cccc(N(C(=O)CCl)c2nc(-c3ccc(Br)cc3)cs2)c1` [Compound B16, N-[4-(4-bromophenyl)thiazol-2-yl]-2-chloro-N-(m-tolyl)acetamide] is more than 10000 nM; for `COc1cccc(N(C(=O)CCl)c2nc(-c3ccc(Br)cc3)cs2)c1` [Compound B17, N-[4-(4-bromophenyl)thiazol-2-yl]-2-chloro-N-(3-methoxyphenyl)acetamide] it is 100 to 1000 nM; for `C#CC(=O)N(c1cc(OC)cc(OC)c1)c1nc(-c2ccc(Br)cc2)cs1` [Compound B19, N-[4-(4-bromophenyl)thiazol-2-yl]-N-(3,5-dimethoxyphenyl)prop-2-ynamide] it is 10 to 100 nM. For `O=C(CCl)N(c1cc(Cl)cc(Cl)c1)c1nc(-c2ccc(Br)cc2)cs1` [Compound B20, N-[4-(4-bromophenyl)thiazol-2-yl]-2-chloro-N-(3,5-dichlorophenyl)acetamide], the IC50 was 1000 to 10000 nM. `Cc1cc(C)cc(N(C(=O)CI)c2nc(-c3ccc(Br)cc3)cs2)c1` [Compound B21, N-[4-(4-bromophenyl)thiazol-2-yl]-N-(3,5-dimethylphenyl)-2-iodo-acetamide]: the IC50 was 10 to 100 nM. Compound `C#CC(=O)N(c1cc(Cl)cc(Cl)c1)c1nc(-c2ccc(Br)cc2)cs1` [Compound B22, N-[4-(4-bromophenyl)thiazol-2-yl]-N-(3,5-dichlorophenyl)prop-2-ynamide] returned an IC50 of 10 to 100 nM. Same read-out and setting: for `C=C(F)C(=O)N(c1cc(C)cc(C)c1)c1nc(-c2ccc(Br)cc2)cs1` [Compound B23, N-[4-(4-bromophenyl)thiazol-2-yl]-N-(3,5-dimethylphenyl)-2-fluoro-prop-2-enamide] the value was more than 10000 nM.

In the case of `COc1cc(Cl)cc(N(C(=O)CCl)c2nc(-c3ccc(Br)cc3)cs2)c1` [Compound B24, N-[4-(4-bromophenyl)thiazol-2-yl]-2-chloro-N-(3-chloro-5-methoxy-phenyl)acetamide], the IC50 fell in the range of 100 to 1000 nM. On the same count and under the same terms, for `O=C(CCl)N(c1cc(F)cc(F)c1)c1nc(-c2ccc(Br)cc2)cs1` [Compound B25, N-[4-(4-bromophenyl)thiazol-2-yl]-2-chloro-N-(3,5-difluorophenyl)acetamide] the value was more than 10000 nM; for `C#CC(=O)N(c1cc(Cl)cc(OC)c1)c1nc(-c2ccc(Br)cc2)cs1` [Compound B26, N-[4-(4-bromophenyl)thiazol-2-yl]-N-(3-chloro-5-methoxy-phenyl)prop-2-ynamide], 10 to 100 nM; for `Cc1cc(C)cc(N(C(=O)CF)c2nc(-c3ccc(Br)cc3)cs2)c1` [Compound B27, N-[4-(4-bromophenyl)thiazol-2-yl]-N-(3,5-dimethylphenyl)-2-fluoro-acetamide], more than 10000 nM.

The compound `Cc1cc(C)cc(N(C(=O)C2CO2)c2nc(-c3ccc(Br)cc3)cs2)c1` (stereo not shown) [Compound B28, N-[4-(4-bromophenyl)thiazol-2-yl]-N-(3,5-dimethylphenyl)oxirane-2-carboxamide] gave an IC50 of more than 10000 nM.

Values taken from patent US20240315994A1, “SMALL MOLECULE MODULATORS OF FERROPTOSIS” (ARPEGGIO BIOSCIENCES, INC., priority 2021, published 2024).
